For data set [1], the system named is Kelly, NGP and SIMA NB cells. In words: Cell Titer-Glo cell viability / growth assay. The format is cell-based, human. The following applies: 6 days, compared with (S,S) stereoisomer and A485. The procedure:
(§1) Cells were infected with lentiviruses encoding sgRNAs or treated with compounds as described. Colony assays were performed by replating cells at 500 cells per well in 6-well dishes and grown in regular growth media for 10 d before 100% methanol fixation, 0.05% crystal violet staining, and quantitation. Experiments were completed in triplicate; data shown are the average of three independent experiments. Cell Titer-Glo® assay was performed as per the manufacturer's instructions (Promega®). Briefly, 1000 cells/well were plated into 96-well plates and treated with a range of compound dosing. Cell viability was measured at the noted time points based on luminescence by the Cell Titer-Glo® assay (Promega®) and read on an Envision 2104 (PerkinElmer®, USA) according to the manufacturer's protocol.
In general terms: ATP-based viability assays read luminescence as a measure of living cells.

Another data set deals with MYCN. In words: Western blotting of MYCN (whole lysates and chromatin extracts). The settings on record: Kelly cells, 0.5 and 1 μM, 24 h, chromatin extracts. The format is cell-based, human. As for the experimental part:
Cells growing in culture were lysed for whole cell lysates as described in Durbin et al. Nat. Genet. 50:1240-1246 (2018) and Wang et al. Nat. Commun. 10:5622 (2019). Nuclear lysates were prepared using the NE-PER® nuclear lysate kit (Thermo Scientific™) according to the manufacturer's protocol. Chromatin lysates were prepared with the total histone extraction kit (Epigentek). Briefly, equivalent amounts of protein were resolved by western blotting using 4-12% Bis-Tris NuPAGE™ gels (Thermo-Fisher Scientific) prior to transfer, and immunoblotting using primary antibodies to: MYCN (1:1000, Cell Signaling Technology®), H3K27ac (1:1000, Abcam), total H3 (1:1000, Cell Signaling Technology®), EP300 (1:1000, Abcam), CBP (1:500, Cell Signaling Technology®), Cas9 (1:1000, Cell Signaling Technology®), cleaved-PARP1 (1:1000, Cell Signaling Technology), cleaved Caspase-3 (1:1000, Cell Signaling Technology®), β-actin (1:1000, Cell Signaling Technology®), GATA3 (1:1000, EMD Millipore™), TFAP2β (1:1000, Cell Signaling Technology®), Vinculin (1:1000, EMD Millipore™), CRBN (1:1000, Cell Signaling Technology®), HAND2 (1:1000, Santa Cruz Biotechnology). Secondary antibodies were horseradish peroxidase (HRP)-conjugated anti-rabbit or anti-mouse (1:5000, Santa Cruz Biotechnology), incubated prior to exposure to enhanced chemiluminescence reagents (GE, Amersham). For immunoprecipitation, equal amounts of protein were diluted in buffer C as described in Mansour et al. Science 346:1373-1377 (2014) and incubated with antibodies covalently conjugated to Dynabeads™ M-270 beads (Thermo-Fisher Scientific) overnight according to the manufacturer's directions. Antibodies used included: H3K27ac, EP300 (Abcam), CBP, TFAP2β (Cell Signaling Technology®), rabbit immunoglobulin G (IgG) (Santa Cruz Biotechnology®). Immunoprecipitated protein was isolated as per the manufacturer's directions and subjected to western blotting, as described above, or mass spectrometry.
Background: A western blot detects proteins with antibodies after separation by electrophoresis.

Data set [2] deals with pro- and anti-apoptotic mRNA transcripts. In words: ERCC spike-in RNA-seq of treated Kelly cells. The settings on record: 500 nM, 24 h. The format is cell-based, human. The procedure: For in vitro analyses, total RNA was extracted from control […] or JQAD1 treated Kelly cells using TRIzolTM reagent (Ambion). Prior to extraction, exogenous spike-in of synthetic External RNA Control Consortium (ERCC) RNA controls were added based on cell number (Ambion). Samples were treated with RNAse-free DNAse I and spin purified using the Qiagen® RNeasy Kit (Qiagen®). Purified RNA samples were subjected to library construction with poly-adenylation preparation and sequencing using the Illumina NextSeq® 500 (paired end, 75bp reads). RNA-seq reads were aligned to a reference index containing the sequences of the hg19 revision of the human reference genome and the ERCC spike-in probes using hisat 2.1.0. Expression was quantified using sorted BAMs, a gene reference built using ERCC sizes and RefSeq genes downloaded Jul. 15, 2017, and htseq-count with parameters -I gene_id- stranded=reverse -f bam -m intersection-strict. Read counts were converted to transcripts per million (TPM) and used for cell number-normalization. The expression of all RefSeq genes and ERCC probes was floored at 0.01 and a pseudocount of 0.1 was added to all entries. Values were normalized by equilibrating the expression of the ERCC probes among experiments using normalize.loess from the affy R package. The ERCC-normalized expression of each gene after 24 h of either […] or JQAD1 treatment was compared against its expression in dimethyl sulfoxide (DMSO) treated samples to create two-fold changes.

A short description of data set [3]: Pharmacokinetic analysis after a single intraperitoneal dose in CD1 mice. The format is in vivo, mouse. The following applies: 10 mg/Kg single IP dose, murine serum. As for the experimental part:
For toxicity studies, four female CD1 mice (Charles River Laboratories) were injected intraperitoneally (IP) with single doses of 10 mg/Kg (R,S)-JQAD1 solubilized in 10% hydroxypropyl β-cyclodextrin (Sigma-Aldrich®) in sterile water. Following injection, blood concentration of (R,S)-JQAD1 was measured by serial measurements of animal serum at time points out to 24 h, by liquid chromatography with tandem mass spectrometry (LC-MS/MS) analysis. Pharmacokinetics were performed at ChemPartner in Shanghai, China, using LC-MS/MS method and pharmacokinetics parameters (Tmax, Cmax, T1/2, AUC, etc.) calculated with WinNonlin® V 6.2 statistics software (Pharsight Corporation) using a noncompartmental model. For maximally tolerated dose (MTD) testing, six female CD1 mice were treated with daily IP doses of (R,S)-JQAD1 at 10, 20, or 40 mg/kg. Animals were monitored for animal weight, grooming and behavior daily without noted effects. For MTD testing in humanized CRBN knockin (Balb/c CRBN^ILE391VAL) (Jackson Laboratories), 6 mice per treatment group were treated with either vehicle control or (R,S)-JQAD1 at 40 mg/kg/day by IP injection. Animal weights, behavior and grooming were monitored daily, for a total of 21 days. At day 14, three mice per treatment group were sacrificed and tissues fixed for immunohistochemistry. Blood samples were obtained by retro-orbital puncture and blood analyzed at the Small Animal Imaging Facility at Beth Israel Deaconess Medical Center (Boston, MA), on a Hemavet® 9500FS (Drew Scientific) for blood counts, creatinine, AST, ALT, ALP, GGTP, and BUN measurements.

The next data set has as its system BE2C-CRBN cells. In words: Cell-Titer Glo growth of BE2C cells overexpressing CRBN or zsGreen. The settings on record: 10 μM, 6 days. The format is cell-based, human. As for the experimental part:
as §1
sgRNAs targeting individual genes were subcloned by standard methodologies within pLKO.5-EFGP. Kelly, SIMA, BE2C, and NGP cells were infected with lenticas9 followed by blasticidin selection. Stable expression of cas9 was established by western blotting of protein lysates using cas9 antibody (Cell Signaling Technology®). Following infection of pLKO.5-EGFP-sgRNA lentivirus, cells were cultured for the identified times prior to evaluation. BE2C cells were infected with pLC-zsgreen or pLC-CRBN lentiviruses and selected using 500 μg/mL hygromycin (Invitrogen™)

Where two headings read alike, the source gives them in different places.

As usually defined, the Cmax is the highest concentration seen after dosing.

As to `C[C@H](N(Cc1ccc(F)cc1)C(=O)CN1C(=O)O[C@@]2(CCc3cc(NC(=O)CCCCCCCCCCCNc4ccc5c(c4)C(=O)N(C4CCC(=O)NC4=O)C5=O)ccc32)C1=O)C(F)(F)F` (stereo partly drawn) [JQAD1, 12-((2-(2,6-dioxopiperidin-3-yl)-1,3-dioxoisoindolin-5-yl)amino)-N-((R)-3′-(2-((4-fluorobenzyl)((S)-1,1,1-trifluoropropan-2-yl)amino)-2-oxoethyl)-2′,4′-dioxo-2,3-dihydrospiro[indene-1,5′-oxazolidin]-5-yl)dodecanamide], the “IC50 in intact NB cells (comparison)” value in data set [1] is “lowest IC50 concentration”. In addition, in the data set on MYCN, the “chromatin-bound MYCN” value is “loss of both EP300 and chromatin-bound MYCN proteins”. Moreover, the “transcript levels of BIM, BID, PUMA, BAX, BCL2 and MCL1” value in data set [2] is “upregulation”. In addition, in data set [2] (JQAD1 versus A485), the “gene set enrichment analysis, hallmark gene sets” value is given as “enrichment of the apoptosis hallmark gene set”. The half-life was 13.3 (+/−3.37) h in data set [3] and 13.3 h in data set [3] (female, mouse, read-out: half-life (converted)). In data set [3] (female, mouse), this compound gave a Cmax of 7 µM. For the same compound, the “growth of BE2C-CRBN cells” value with BE2C-CRBN cells is given as “suppressed”.

The record behind these values is patent US20240156800A1, “EP300 DEGRADER AND USES THEREOF IN NEUROBLASTOMA” (DANA-FARBER CANCER INSTITUTE, INC., priority 2021, published 2024).
